Data from patent publication US6495680B1, “Helices and nanotubes on folding compositions and method of making same” (The University of Toledo, priority 2000, dated 2002).

Experiment: Solubility of oligomers in organic solvents
Type: physicochemical
From the text: Oligomers such as the homologues H, K, L, M, N, and O are synthesized by treating acid chloride with the corresponding amines.
From H to N, all the amide-H resonances appear at positions >9.2 ppm. […] That one amide-H resonance, appears at δ8.86.

solubility in DMF (DMF): increasingly insoluble
behaviour of the freshly prepared compound in DMF on standing (freshly prepared, added to DMF, standing at room temperature, precipitation faster at elevated temperatures): gradually precipitate out
SMILES: COc1ccccc1NC(=O)c1cc(NC(=O)c2cc([N+](=O)[O-])c(OC)cc2OC)c(OC)cc1OC [K]
